Reference: publication PMC10281575, “PfCRT mutations conferring piperaquine resistance in falciparum malaria shape the kinetics of quinoline drug binding and transport” (PLOS Pathogens, 2023)
“And” between values parts separate entries of the source, which are not always exact repeats. Equal values may be shown once. Read-outs that look alike come from different tables or passages of the source.

Target: T1, PfCRT^Dd2 (Plasmodium falciparum, UniProt Q8IBZ9, A220S/I356T/K76T/M74I/N326S/N75E/Q271E/R371I)
T1 sequence (Q8IBZ9 1-424 M74I/N75E/K76T/A220S/Q271E/N326S/I356T/R371I): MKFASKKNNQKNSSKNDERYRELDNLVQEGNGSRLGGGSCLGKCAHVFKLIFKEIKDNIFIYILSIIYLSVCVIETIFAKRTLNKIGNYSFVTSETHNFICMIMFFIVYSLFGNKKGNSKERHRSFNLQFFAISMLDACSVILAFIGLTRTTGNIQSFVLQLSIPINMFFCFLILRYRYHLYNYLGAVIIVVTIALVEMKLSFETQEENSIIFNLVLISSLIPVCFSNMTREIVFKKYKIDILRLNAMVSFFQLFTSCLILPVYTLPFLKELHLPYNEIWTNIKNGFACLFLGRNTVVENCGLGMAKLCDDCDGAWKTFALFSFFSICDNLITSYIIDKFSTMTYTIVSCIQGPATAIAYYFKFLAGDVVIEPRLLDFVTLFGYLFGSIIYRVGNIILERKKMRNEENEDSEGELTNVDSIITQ
Test: Competition kinetics of drug transport (radiolabeled substrate plus cold inhibitor), PfCRT^Dd2-expressing oocytes
Type: cell-based
Parameters: expressed in transfected cells; host or cells: Xenopus laevis oocytes injected with in vitro transcribed RNA (pSP64T)
Details: for PfCRTDd2-mediated CQ transport 10 µM CQ / PfCRTDd2-mediated CQ transport 50 µM CQ / PfCRTDd2-mediated CQ transport 100 µM CQ / PfCRTDd2-mediated CQ transport 200 µM CQ / PfCRTDd2-mediated CQ transport 300 µM CQ / PfCRTDd2-mediated CQ transport 400 µM CQ / PfCRTDd2-mediated CQ transport 500 µM CQ: single replicates; for Vmax, maximal velocity of drug transport: global fit; for β, partiality factor: factor on transport of the labeled drug by the other drug
Procedure: The experimental procedure and the data analysis were as described above.
The difference between the two models lies in the value of α, a parameter describing how much the affinity for the substrate changes when the inhibitor is already bound, and vice versa. […] The resulting Vmax,app values and the Vmax,app/KM,app ratios were plotted as a function of the inhibitor concentration (Fig 5A).
Drug transport assays were performed as previously described. Briefly, measurements of radiolabeled drug uptake were made over 1 h, unless otherwise specified. […] Where specified, one or more unlabeled drugs were also present at the indicated concentrations. […] The uptake assays were terminated by removing the oocytes from the reaction medium and washing them three times with 2 mL of ice-cold ND96 buffer. Each oocyte was transferred to a separate scintillation vial and lysed by the addition of 200 μL of a 5% SDS solution. The radioactivity in the sample was measured using a liquid scintillation analyser Tri-Carb 4910 TR (PerkinElmer). Water-injected oocytes were analyzed in parallel as a negative control. The buffer from each condition was measured in duplicate in parallel to each experiment to transform counts per minute into pmol of drug. Drug uptake attributable to PfCRT was determined by subtracting the background uptake from water-injected oocytes from that of PfCRT-expressing oocytes. In all cases, at least three independent experiments were performed on oocytes from different frogs, and for each condition in an experiment, measurements were made from 10 oocytes per treatment.
The following equations were adopted from Segel (1993), and the reader is referred to that text for the assumptions made in the author’s approach in the derivation of each equation [31]. The concentration of substrate is denoted as [S1] and the concentration of the inhibiting substrate is denoted as [S2]. KS1 and KS2 are the dissociation constants for the respective substrate-protein complexes.
Analyses of the kinetic data were performed using SigmaPlot version 13.0 and Python. The drug competition models were globally fit to the kinetic data using the least-squares method and ranked according to their corrected Akaike information criterion difference (ΔAICC) and their Akaike weight, using Python. The two top-ranked models were compared using an F-test.
This factor reflects how much the affinity of the transporter for one drug changes when the other drug is already bound in the protein cavity. In the former model, α > 0 and α ≠ 1. In the latter model, it could be thought of as if α = 1. Because of this, discriminating between the two models also means determining the value of α. In Mixed-type (Partial) inhibition, the apparent maximal velocity (Vmax,app) is given by Eq 22, Vmax,app=Vmax(1+β[S2]/αKS2)/(1+[S2]/αKS2) (Eq 22)
Vmax,app is the maximal rate of substrate transport at a certain inhibitor concentration. The half-maximal inhibitory concentration is given by the term in the denominator different from [S2], which in this case is αKS2. This means that by plotting Vmax,app as a function of [S2], the value of αKS2 can be derived after fitting the curve to Eq 23.
The half-maximal inhibitory concentration derived from this hyperbolic equation is equal to KS2. By plotting Vmax,app/KM,app as a function of [S2], one can derive KS2 after fitting the curve to Eq 25. The value of α can then be calculated dividing αKS2 by KS2.

## CCN(CC)CCCC(C)Nc1ccnc2cc(Cl)ccc12 (stereo not shown) [CQ, chloroquine]
0 µM PPQ
  PfCRTDd2-mediated CQ transport 10 µM CQ: 0.87 pmol oocyte-1 h-1 and 1.33 pmol oocyte-1 h-1 and 1.00 pmol oocyte-1 h-1 and 0.95 pmol oocyte-1 h-1
  PfCRTDd2-mediated CQ transport 50 µM CQ: 3.90 pmol oocyte-1 h-1 and 4.91 pmol oocyte-1 h-1 and 4.76 pmol oocyte-1 h-1 and 7.49 pmol oocyte-1 h-1 and 10.46 pmol oocyte-1 h-1 and 5.04 pmol oocyte-1 h-1 and 3.98 pmol oocyte-1 h-1
  PfCRTDd2-mediated CQ transport 100 µM CQ: 8.35 pmol oocyte-1 h-1 and 7.99 pmol oocyte-1 h-1 and 8.53 pmol oocyte-1 h-1
  PfCRTDd2-mediated CQ transport 200 µM CQ: 17.86 pmol oocyte-1 h-1 and 12.77 pmol oocyte-1 h-1 and 15.13 pmol oocyte-1 h-1
  PfCRTDd2-mediated CQ transport 300 µM CQ: 20.89 pmol oocyte-1 h-1 and 20.25 pmol oocyte-1 h-1 and 8.92 pmol oocyte-1 h-1 and 15.94 pmol oocyte-1 h-1 and 19.02 pmol oocyte-1 h-1
  PfCRTDd2-mediated CQ transport 400 µM CQ: 20.79 pmol oocyte-1 h-1 and 22.58 pmol oocyte-1 h-1 and 19.58 pmol oocyte-1 h-1 and 16.43 pmol oocyte-1 h-1
  PfCRTDd2-mediated CQ transport 500 µM CQ: 25.01 pmol oocyte-1 h-1 and 21.69 pmol oocyte-1 h-1 and 19.19 pmol oocyte-1 h-1 and 20.87 pmol oocyte-1 h-1
50 µM PPQ
  PfCRTDd2-mediated CQ transport 10 µM CQ: 1.41 pmol oocyte-1 h-1 and 1.10 pmol oocyte-1 h-1 and 0.61 pmol oocyte-1 h-1
  PfCRTDd2-mediated CQ transport 50 µM CQ: 6.48 pmol oocyte-1 h-1 and 5.07 pmol oocyte-1 h-1 and 3.08 pmol oocyte-1 h-1 and 4.12 pmol oocyte-1 h-1
  PfCRTDd2-mediated CQ transport 100 µM CQ: 9.49 pmol oocyte-1 h-1 and 7.68 pmol oocyte-1 h-1 and 5.55 pmol oocyte-1 h-1
  PfCRTDd2-mediated CQ transport 200 µM CQ: 13.29 pmol oocyte-1 h-1 and 13.73 pmol oocyte-1 h-1 and 11.63 pmol oocyte-1 h-1
  PfCRTDd2-mediated CQ transport 300 µM CQ: 15.04 pmol oocyte-1 h-1 and 14.02 pmol oocyte-1 h-1 and 15.34 pmol oocyte-1 h-1
  PfCRTDd2-mediated CQ transport 400 µM CQ: 18.68 pmol oocyte-1 h-1 and 19.12 pmol oocyte-1 h-1 and 16.44 pmol oocyte-1 h-1
  PfCRTDd2-mediated CQ transport 500 µM CQ: 19.01 pmol oocyte-1 h-1 and 16.61 pmol oocyte-1 h-1 and 18.59 pmol oocyte-1 h-1
125 µM PPQ
  PfCRTDd2-mediated CQ transport 10 µM CQ: 0.68 pmol oocyte-1 h-1 and 1.41 pmol oocyte-1 h-1 and 1.40 pmol oocyte-1 h-1
  PfCRTDd2-mediated CQ transport 50 µM CQ: 4.96 pmol oocyte-1 h-1 and 2.54 pmol oocyte-1 h-1 and 3.07 pmol oocyte-1 h-1
  PfCRTDd2-mediated CQ transport 100 µM CQ: 5.95 pmol oocyte-1 h-1 and 8.32 pmol oocyte-1 h-1 and 6.55 pmol oocyte-1 h-1
  PfCRTDd2-mediated CQ transport 200 µM CQ: 10.25 pmol oocyte-1 h-1 and 14.35 pmol oocyte-1 h-1 and 10.52 pmol oocyte-1 h-1
  PfCRTDd2-mediated CQ transport 300 µM CQ: 15.92 pmol oocyte-1 h-1 and 14.01 pmol oocyte-1 h-1 and 11.66 pmol oocyte-1 h-1
  PfCRTDd2-mediated CQ transport 400 µM CQ: 13.83 pmol oocyte-1 h-1 and 18.03 pmol oocyte-1 h-1 and 15.59 pmol oocyte-1 h-1
  PfCRTDd2-mediated CQ transport 500 µM CQ: 18.10 pmol oocyte-1 h-1 and 16.11 pmol oocyte-1 h-1 and 15.06 pmol oocyte-1 h-1
200 µM PPQ
  PfCRTDd2-mediated CQ transport 10 µM CQ: 0.89 pmol oocyte-1 h-1 and 0.30 pmol oocyte-1 h-1 and 1.02 pmol oocyte-1 h-1
  PfCRTDd2-mediated CQ transport 50 µM CQ: 3.46 pmol oocyte-1 h-1 and 2.63 pmol oocyte-1 h-1 and 3.11 pmol oocyte-1 h-1
  PfCRTDd2-mediated CQ transport 100 µM CQ: 5.59 pmol oocyte-1 h-1 and 6.01 pmol oocyte-1 h-1 and 5.66 pmol oocyte-1 h-1
  PfCRTDd2-mediated CQ transport 200 µM CQ: 10.68 pmol oocyte-1 h-1 and 10.09 pmol oocyte-1 h-1 and 9.74 pmol oocyte-1 h-1
  PfCRTDd2-mediated CQ transport 300 µM CQ: 11.11 pmol oocyte-1 h-1 and 12.97 pmol oocyte-1 h-1 and 12.36 pmol oocyte-1 h-1
  PfCRTDd2-mediated CQ transport 400 µM CQ: 14.22 pmol oocyte-1 h-1 and 13.47 pmol oocyte-1 h-1 and 13.35 pmol oocyte-1 h-1
  PfCRTDd2-mediated CQ transport 500 µM CQ: 12.71 pmol oocyte-1 h-1 and 15.12 pmol oocyte-1 h-1 and 13.60 pmol oocyte-1 h-1
350 µM PPQ
  PfCRTDd2-mediated CQ transport 10 µM CQ: 1.16 pmol oocyte-1 h-1 and 0.24 pmol oocyte-1 h-1 and 0.95 pmol oocyte-1 h-1
  PfCRTDd2-mediated CQ transport 50 µM CQ: 2.38 pmol oocyte-1 h-1 and 2.66 pmol oocyte-1 h-1 and 3.48 pmol oocyte-1 h-1
  PfCRTDd2-mediated CQ transport 100 µM CQ: 5.36 pmol oocyte-1 h-1 and 3.63 pmol oocyte-1 h-1 and 6.93 pmol oocyte-1 h-1
  PfCRTDd2-mediated CQ transport 200 µM CQ: 11.39 pmol oocyte-1 h-1 and 6.27 pmol oocyte-1 h-1 and 10.49 pmol oocyte-1 h-1
  PfCRTDd2-mediated CQ transport 300 µM CQ: 11.84 pmol oocyte-1 h-1 and 11.95 pmol oocyte-1 h-1 and 8.89 pmol oocyte-1 h-1
  PfCRTDd2-mediated CQ transport 400 µM CQ: 14.38 pmol oocyte-1 h-1 and 9.22 pmol oocyte-1 h-1
  PfCRTDd2-mediated CQ transport 500 µM CQ: 12.41 pmol oocyte-1 h-1 and 14.97 pmol oocyte-1 h-1 and 10.99 pmol oocyte-1 h-1
500 µM PPQ
  PfCRTDd2-mediated CQ transport 10 µM CQ: 0.43 pmol oocyte-1 h-1 and 1.04 pmol oocyte-1 h-1 and 0.36 pmol oocyte-1 h-1
  PfCRTDd2-mediated CQ transport 50 µM CQ: 2.32 pmol oocyte-1 h-1 and 2.15 pmol oocyte-1 h-1 and 3.29 pmol oocyte-1 h-1
  PfCRTDd2-mediated CQ transport 100 µM CQ: 4.92 pmol oocyte-1 h-1 and 5.26 pmol oocyte-1 h-1 and 4.17 pmol oocyte-1 h-1
  PfCRTDd2-mediated CQ transport 200 µM CQ: 7.85 pmol oocyte-1 h-1 and 9.03 pmol oocyte-1 h-1 and 9.31 pmol oocyte-1 h-1
  PfCRTDd2-mediated CQ transport 300 µM CQ: 11.31 pmol oocyte-1 h-1 and 9.89 pmol oocyte-1 h-1 and 9.29 pmol oocyte-1 h-1
  PfCRTDd2-mediated CQ transport 400 µM CQ: 12.77 pmol oocyte-1 h-1 and 10.16 pmol oocyte-1 h-1 and 8.34 pmol oocyte-1 h-1
  PfCRTDd2-mediated CQ transport 500 µM CQ: 15.66 pmol oocyte-1 h-1 and 9.12 pmol oocyte-1 h-1 and 11.85 pmol oocyte-1 h-1
16 models, ΔAICC, Akaike weight, F-test, label = cold inhibitor of the other drug's transport
  most plausible inhibition model: partial noncompetitive inhibition
Mixed (Partial) model, drug as radiolabeled substrate
  Vmax, maximal velocity of drug transport: 33 ± 1 pmol oocyte^-1 h^-1
Mixed (Partial) model, drug as cold inhibitor, read-out: KS, dissociation constant for the PfCRT-substrate complex
  Kd: 210 ± 80 µM
Mixed (Partial) model, drug as radiolabeled substrate, read-out: KS, dissociation constant for the PfCRT-substrate complex
  Kd: 260 ± 25 µM
Mixed (Partial) model
  β, partiality factor: 0.38 ± 0.06
Mixed (Partial) model, label = radiolabeled substrate, other drug cold inhibitor
  α, KS interaction factor: 1.0 ± 0.2
Noncompetitive (Partial) model, drug as radiolabeled substrate, other drug as cold inhibitor
  Vmax, maximal velocity of drug transport: 32 pmol oocyte^-1 h^-1 and 32 ± 1 pmol oocyte^-1 h^-1
Noncompetitive (Partial) model, drug as cold inhibitor, read-out: KS, dissociation constant for the PfCRT-substrate complex
  Kd: 238 µM and 240 µM
Noncompetitive (Partial) model, drug as radiolabeled substrate, read-out: KS, dissociation constant for the PfCRT-substrate complex
  Kd: 254 µM and 250 µM
Noncompetitive (Partial) model
  β, partiality factor: 0.38 and 0.38 ± 0.04
[PPQ] 0 µM
  KMapp ([3H]CQ + PPQ): 257.93 µM
  Vmaxapp ([3H]CQ + PPQ): 32.70 pmol oocyte-1 h-1
  Vmaxapp/KMapp ([3H]CQ + PPQ): 0.1268 h⁻¹
[PPQ] 50 µM
  KMapp ([3H]CQ + PPQ): 250.37 µM
  Vmaxapp ([3H]CQ + PPQ): 27.98 pmol oocyte-1 h-1
  Vmaxapp/KMapp ([3H]CQ + PPQ): 0.1117 h⁻¹
[PPQ] 125 µM
  KMapp ([3H]CQ + PPQ): 258.31 µM
  Vmaxapp ([3H]CQ + PPQ): 25.60 pmol oocyte-1 h-1
  Vmaxapp/KMapp ([3H]CQ + PPQ): 0.0991 h⁻¹
[PPQ] 200 µM
  KMapp ([3H]CQ + PPQ): 254.40 µM
  Vmaxapp ([3H]CQ + PPQ): 21.83 pmol oocyte-1 h-1
  Vmaxapp/KMapp ([3H]CQ + PPQ): 0.0858 h⁻¹
[PPQ] 350 µM
  KMapp ([3H]CQ + PPQ): 250.34 µM
  Vmaxapp ([3H]CQ + PPQ): 19.75 pmol oocyte-1 h-1
  Vmaxapp/KMapp ([3H]CQ + PPQ): 0.0789 h⁻¹
[PPQ] 500 µM
  KMapp ([3H]CQ + PPQ): 247.83 µM
  Vmaxapp ([3H]CQ + PPQ): 17.90 pmol oocyte-1 h-1
  Vmaxapp/KMapp ([3H]CQ + PPQ): 0.0722 h⁻¹
Fractional velocity plot, factor by which PPQ slows down CQ transport
  β^CQ, partiality factor: 0.35 ± 0.06
Secondary plot, half-maximum inhibitory concentration of Vmax,app versus inhibitor concentration, read-out: αKS, dissociation constant between the drug and the PfCRT complex with the other drug
  Kd: 220 ± 85 µM
Secondary plots, label = prebound drug
  α (αKS divided by KS): 1.0 ± 0.3
